The test system of data set [1] is TGFβ-treated human cardiac fibroblasts. The data set can be described thus: Specificity: IL6 and Col I secretion in TGFβ-treated human cardiac fibroblasts. Format: cell-based. The note with it: 10 µM, Fig. S5. How it is done:
Primary human cardiac fibroblasts (HCF) were obtained from Promocell (Heidelberg, Germany) and maintained in Fibroblast Media 3 following manufacturer’s instructions (Promocell). Cells were used between passages 5 and 7. Cells were stimulated with recombinant hNGAL (500 ng/mL, R&D Systems) or with TGFβ (10 ng/mL, R&D Systems) for 24 h. To assess cell proliferation the MTT test was used following provider’s instructions (Roche). For protein analysis. Primary Mouse Kidney Fibroblasts (MKF) were isolated from Wild Type (WT) mice. Briefly, 8 weeks old mice were sacrificed by cervical dislocation and kidneys were cleaned and rinsed in cold DPBS (Dulbecco's Phosphate-Buffered Saline). The renal cortex was minced and incubated in Dulbecco’s modified eagle medium/Nutrient mixture F-12 (DMEM/F12, Sigma) containing 1 mg/mL collagenase A (Roche) during 25 min at 37 °C. The digestion was inactivated by adding culture medium (DMEM/F12 + 10% FBS) then the cell suspension was passed through a 100-μm cell strainer. After centrifugation, the pellet (containing MKF) was diluted with culture medium then plated in 75 cm^2 culture flask. After 24 h MKF were washed with DPBS before replacement of fresh culture medium. […]
IL6 and collagen type I concentrations were measured in cardiac tissue and cell supernatants by ELISA according to the manufacturer's instructions (R&D Systems).

The test system of data set [2] is isolated hepatocytes from swiss mice. The data set can be described thus: Hepatotoxicity, thiazolyl blue tetrazolium bromide (MTT) colorimetric assay. Format: cell-based, mouse. How it is done:
(§1) Several parameters have been evaluated to determine ADME-Tox profile of the compounds. Two specific toxicity assays have been performed to assess hepatoxicity and cardiotoxicity. Hepatotoxicity was evaluated in isolated hepatocytes from swiss mice and determined by the thiazolyl blue tetrazolium bromide colorimetric assay (sigma, St Louis, MO, USA). Cardiotoxicity was evaluated using the commercially available Predictor hERG fluorescence polarization kit (Thermo Fisher Scientific, Illinois, USA). Several absorption, distribution, metabolism, and excretion (ADME) assays have been carried out. The following experiments were undertaken: stability in human microsomes, binding to human plasma protein, and CYP3A4 inhibition assay (Vivid CYP3A4 assay, Thermo Fisher Scientific, Illinois, USA). Physico-chemical properties were also assessed such as aqueous solubility and chemical stability.

The next data set is described as follows: Chemical stability. Format: physicochemical. The procedure: as §1
The target of a further data set is T1, CYP3A4 (Homo sapiens, UniProt P08684).
T1 construct: purchased Thermo Fisher Scientific
Briefly: CYP3A4 inhibition assay (Vivid CYP3A4 assay). It counts as in vitro ADME. The procedure: as §1

Data set [3] relates to myocardial infarction mouse model. Briefly: Myocardial infarction (MI) mouse model, left coronary artery ligation. Format: in vivo. The note with it: MI mice. The procedure:
Animals were housed in a climate-controlled facility with a 12-h/12-h light/dark cycle and provided free access to food and water. Experiments were approved by the Darwin ethics committee of Sorbonne University, and conducted according to the INSERM animal care and use committee guidelines. The NGAL inhibitor GP1 was incorporated in regular chow (A04, Safe, Augy, France) at the dose of 625 mg GP1/kg of chow to achieve a low dose of 100 mg/kg/day of GP1 administered to the mice (based on a daily consumption of 4 g of chow).
Myocardial infarction (MI) was induced as previously described. Briefly, Chronic Heart Failure (CHF) resulted from left ventricle MI that was induced by left coronary artery ligation in 8 week-old male mice. Mice were anesthetized with intraperitoneal injections of ketamine (90 mg/kg, Merial, France) and xylazine (3.6 mg/kg, Bayer, France), followed by artificial ventilation. Anesthesia and sedation were controlled by monitoring heart rate and by performing paw pinch reflex and corneal reflex tests, before a thoracotomy was performed. The left main coronary artery was ligated close to its origin. After surgery, analgesia was prolonged during the awakening phase by an intramuscular injection of Beprucare (50 µg/kg). Post-infarction mortality in this mouse model is about 30–40%, primarily occurring around days 4–7 after MI. Sham-operated mice (control) were subjected to the same protocol except that the artery was not ligated. The inhibitor was administered the 8 day after MI for the indicated period. Tissue were harvested after 12 weeks after MI. Left ventricle diastolic and systolic diameters were measured in anesthetized (isofluorane 1.5%) mice, according to the American Society of Echocardiography’s leading-edge method (using Vivid 7 echograph a 14 MHz probe). In addition, LV outflow velocity was measured by pulsed waves, and CO was calculated as follows:
CO=aortic VTI×π×LV outflow diameter/2^2×heart rate, where VTI is velocity–time integral.
LV hemodynamic was assessed as described previously. Briefly, mice were anesthetized (chloral 320 mg/kg, IP) and the carotid artery cannulated with a pressure–volume catheter (SPR839, Millar-Instruments, USA) and the catheter was advanced into the LV. Pressure–volume loops were obtained at baseline and during loading by gently occluding the abdominal aorta. LV end-systolic and end-diastolic pressures, dP/dtmax/min, LV relaxation constant tau and were measured/calculated with IOX software (EMKA, France). Systolic BP was measured by tail-cuff plethysmography in trained conscious mice at weeks 8–10 using a BP2000 Visitech model. BP was measured every day in the same room at the same hour for 5 consecutive days. The BP measurements (expressed as mmHg) presented are the averages of the last 3 days.
In the MI model, heart was harvested after hemodynamics and the atria and the ventricles were separated and weighed individually. A section of the left ventricle was immersed in Bouin fixative solution. In the CKD model, kidneys were harvested and a section was immersed in paraformaldehyde fixative solution. After fixation, the sections were dehydrated and embedded in paraffin. From these sections, 5-μm thick histologic slices were obtained and were stained with Sirius Red. For the measurement of cardiac or renal collagen density, slides were examined and photographed under a light microscope (Zeiss) at 40× magnification. Collagen content was calculated as percentage of collagen area to total area of the image. Perivascular collagen was excluded from the analysis. For tubular lesions scoring, kidney slides were stained with Periodic Acid-Schiff kit (Sigma) and the score of tubules with injury (epithelial cell necrosis and detachment, and tubular dilation) was analyzed blinded to the experimental groups. […]

Molecules are shown by their SMILES. Bounds are passed on as bounds.

T1 sequence (P08684 whole entry): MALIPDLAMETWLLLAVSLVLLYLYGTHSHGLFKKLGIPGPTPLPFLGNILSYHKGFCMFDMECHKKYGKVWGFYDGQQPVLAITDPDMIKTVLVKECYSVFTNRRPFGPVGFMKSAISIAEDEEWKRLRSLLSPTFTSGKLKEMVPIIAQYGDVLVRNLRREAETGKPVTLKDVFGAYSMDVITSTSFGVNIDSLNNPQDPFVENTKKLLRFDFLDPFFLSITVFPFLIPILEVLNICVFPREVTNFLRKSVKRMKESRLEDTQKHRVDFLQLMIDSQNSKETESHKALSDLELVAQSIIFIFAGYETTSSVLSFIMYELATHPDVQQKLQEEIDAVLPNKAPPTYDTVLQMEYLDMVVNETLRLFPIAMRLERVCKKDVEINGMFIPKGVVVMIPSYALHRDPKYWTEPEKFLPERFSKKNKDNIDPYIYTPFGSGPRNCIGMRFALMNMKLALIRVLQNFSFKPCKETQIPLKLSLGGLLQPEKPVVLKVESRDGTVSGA

As to `CC(=O)c1cccc(S(=O)(=O)NCc2ccccc2-n2cccn2)c1` [GPZ614741], in data set [1], the “Effect on TGFβ-increased IL6 and Col I secretion” value was “no inhibitory effect”. In addition, the “Hepatotoxicity (MTT)” value in data set [2] is above 0.1 mM. Further, the Hepatotoxicity in data set [2] (Table S5, MTT) is on record as above 100 µM. Further, the “Stability to acidic pH, in words” value in the data set “Chemical stability” is reported as “fully stable”. The “Chemical Stability %” value in the data set “Chemical stability” (Table S5) was 103%. The “Processing by CYP3A4, in words” value at CYP3A4 is given as “partially processed by CYP3A4”. The “CyP 3A4 Inhibition % (100= no inhibition)” value at CYP3A4 (Table S5) was 72.21 ± 1.94%. For the same molecule, the “SV (stroke volume)” value in data set [3] (GP1 100 mg/kg/day in the food, three months, MI untreated 0.062 ± 0.005) amounted to 0.086 ± 0.004 ml/beat. For the same molecule, the “LVESD (left ventricular end systolic diameter)” value in data set [3] (GP1 100 mg/kg/day in the food, three months, MI untreated 5.47 ± 0.13) worked out at 4.90 ± 0.39 mm. Besides, in data set [3] (GP1 100 mg/kg/day in the food, three months, MI untreated 5.82 ± 0.32), the “tau 1/2 (relaxation constant)” value is 4.33 ± 0.21. This molecule also showed an LVEDP in data set [3] (GP1 100 mg/kg/day in the food, three months, MI untreated 5.91 ± 0.49) of 4.41 ± 0.57 mmHg. Also, in data set [3] (GP1 100 mg/kg/day in the food, three months, MI untreated 6.31 ± 0.12), the “LVEDD (left ventricular end diastolic diameter)” value turned out to be 5.88 ± 0.39 mm. In addition, the “tau e (relaxation constant)” value in data set [3] (GP1 100 mg/kg/day in the food, three months, MI untreated 7.97 ± 0.45) was 6.08 ± 0.27. Besides, the “LVW/TL (left ventricle weight/tibia length)” value in data set [3] (GP1 100 mg/kg/day in the food, three months, MI untreated 8.3 ± 0.3) stood at 8.8 ± 0.6 mg/mm. Also, the “HW/TL (heart weight/tibia length)” value in data set [3] (GP1 100 mg/kg/day in the food, three months, MI untreated 10.9 ± 0.4) is given as 11.3 ± 0.8 mg/mm. For the same molecule, the “FS (fractional shortening)” value in data set [3] (GP1 100 mg/kg/day in the food, three months, MI untreated 13.4 ± 1.0) was 17.2 ± 1.3 %. In addition, the “CO (cardiac output)” value in data set [3] (GP1 100 mg/kg/day in the food, three months, MI untreated 29.4 ± 1.9) is 47.1 ± 3.3 mL/min. The “LVESP (left ventricular end systolic pressure)” value in data set [3] (GP1 100 mg/kg/day in the food, three months, MI untreated 78.82 ± 2.76) is reported as 82.31 ± 4.22 mmHg. For the same molecule, the “LV (dP/dtmin), relaxation index” value in data set [3] (GP1 100 mg/kg/day in the food, three months, MI untreated 3117 ± 253) is recorded as 4487 ± 413. Also, in data set [3] (GP1 100 mg/kg/day in the food, three months, MI untreated 3894 ± 259), the “LV (dP/dtmax), contractility index” value is listed as 4501 ± 320. Besides, in data set [3] (GP1 100 mg/kg/day in the food, Fig. 2A), the “LV interstitial collagen deposition vs non-treated MI group” value is reported as “significantly lower”. Besides, the “Infarct size in mid LV sections” value in data set [3] (GP1-treated, untreated 39.0 ± 2.3, n = 4–9, NS) amounted to 40.0 ± 1.8%. In addition, the “Upregulation of cardiac IL6 protein and inflammatory markers CD68, CD80, CD86” value in data set [3] (GP1, Fig. 2E) is “significantly prevented”. For the same molecule, the “Upregulation of Col I, αSMA and CTGF protein levels” value in data set [3] (three months of GP1, Fig. 2B–D) is listed as “significantly prevented”.

The values are drawn from publication PMC7844219, “Antifibrotic effect of novel neutrophil gelatinase-associated lipocalin inhibitors in cardiac and renal disease models” (Scientific Reports, 2021).
